The source made the active and inactive calls.

Our source for the IC50, EC50 and AC50 values is ChEMBL document CHEMBL1201862, “PubChem BioAssay data set” (2004).

In assay [1] the target is Transitional endoplasmic reticulum ATPase (Homo sapiens, UniProt P55072). Nature of the assay: p97 ATPase inhibitors, dose response, biochemical (AID 1534).
The target of a further assay is T1, Protein RecA (Mycobacterium tuberculosis, UniProt P9WHJ3).
T1 sequence (P9WHJ3 whole entry): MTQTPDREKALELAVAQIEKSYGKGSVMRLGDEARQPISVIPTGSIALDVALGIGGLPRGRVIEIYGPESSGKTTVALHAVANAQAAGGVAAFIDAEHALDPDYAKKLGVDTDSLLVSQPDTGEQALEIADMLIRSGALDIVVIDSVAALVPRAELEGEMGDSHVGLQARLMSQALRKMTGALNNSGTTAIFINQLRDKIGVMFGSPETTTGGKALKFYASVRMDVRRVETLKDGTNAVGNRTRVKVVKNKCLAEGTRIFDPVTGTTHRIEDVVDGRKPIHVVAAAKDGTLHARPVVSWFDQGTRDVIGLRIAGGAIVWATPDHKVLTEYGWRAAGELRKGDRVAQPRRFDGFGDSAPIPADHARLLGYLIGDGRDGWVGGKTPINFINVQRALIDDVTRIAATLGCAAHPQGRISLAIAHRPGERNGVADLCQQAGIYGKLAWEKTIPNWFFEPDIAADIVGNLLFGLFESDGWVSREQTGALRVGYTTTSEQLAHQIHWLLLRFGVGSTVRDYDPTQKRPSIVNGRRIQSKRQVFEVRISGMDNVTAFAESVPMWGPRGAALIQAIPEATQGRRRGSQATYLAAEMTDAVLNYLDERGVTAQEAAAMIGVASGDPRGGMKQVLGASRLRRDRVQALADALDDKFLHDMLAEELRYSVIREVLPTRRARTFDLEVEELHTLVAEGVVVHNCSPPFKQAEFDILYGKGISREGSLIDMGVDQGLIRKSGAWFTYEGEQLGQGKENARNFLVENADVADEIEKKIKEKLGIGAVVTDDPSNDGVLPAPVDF
Nature of the assay: Fluorescence Cell-Free Homogeneous Dose Retest to Identify Inhibitors of RecA-Intein Splicing Activity. [Related pubchem assays (depositor defined):AID2097, AID2223, AID489010, AID492950]. The format is functional.

The target of assay [2] is Transitional endoplasmic reticulum ATPase (Homo sapiens, UniProt P55072, C522A). Nature of the assay: C522A mutant p97 ATPase inhibitors, dose response, counter-screen for p97 inhibitor project, biochemical, luminescence (AID 1544).
Sequence of Transitional endoplasmic reticulum ATPase (Homo sapiens, UniProt P55072, C522A) (P55072 2-806 C522A limits assumed): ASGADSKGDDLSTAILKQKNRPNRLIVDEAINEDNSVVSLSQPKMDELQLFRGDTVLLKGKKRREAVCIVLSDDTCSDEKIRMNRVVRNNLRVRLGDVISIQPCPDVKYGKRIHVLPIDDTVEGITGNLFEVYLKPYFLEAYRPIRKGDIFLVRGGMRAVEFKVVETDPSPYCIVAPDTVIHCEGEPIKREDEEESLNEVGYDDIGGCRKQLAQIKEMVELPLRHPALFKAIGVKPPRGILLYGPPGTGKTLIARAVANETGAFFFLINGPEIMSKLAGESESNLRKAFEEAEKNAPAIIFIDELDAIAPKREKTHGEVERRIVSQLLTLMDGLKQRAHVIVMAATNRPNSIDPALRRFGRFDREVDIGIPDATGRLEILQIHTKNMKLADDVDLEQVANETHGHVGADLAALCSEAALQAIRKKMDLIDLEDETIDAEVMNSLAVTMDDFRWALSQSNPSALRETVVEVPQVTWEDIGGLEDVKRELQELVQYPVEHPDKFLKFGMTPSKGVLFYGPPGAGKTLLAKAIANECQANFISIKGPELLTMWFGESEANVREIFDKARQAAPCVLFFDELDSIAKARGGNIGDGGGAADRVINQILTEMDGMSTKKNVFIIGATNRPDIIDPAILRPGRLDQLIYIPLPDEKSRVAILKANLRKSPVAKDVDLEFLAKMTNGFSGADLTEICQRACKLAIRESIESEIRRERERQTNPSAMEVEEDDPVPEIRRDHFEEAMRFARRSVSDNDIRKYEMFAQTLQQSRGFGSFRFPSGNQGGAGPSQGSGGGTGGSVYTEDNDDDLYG
Assay [3] has as its target Heat shock protein HSP 90-alpha (Homo sapiens, UniProt P07900). The format is functional, organism-based.
Assay [4] deals with T2, Tyrosyl-DNA phosphodiesterase 2 (Homo sapiens, UniProt O95551).
T2 sequence (O95551 whole entry): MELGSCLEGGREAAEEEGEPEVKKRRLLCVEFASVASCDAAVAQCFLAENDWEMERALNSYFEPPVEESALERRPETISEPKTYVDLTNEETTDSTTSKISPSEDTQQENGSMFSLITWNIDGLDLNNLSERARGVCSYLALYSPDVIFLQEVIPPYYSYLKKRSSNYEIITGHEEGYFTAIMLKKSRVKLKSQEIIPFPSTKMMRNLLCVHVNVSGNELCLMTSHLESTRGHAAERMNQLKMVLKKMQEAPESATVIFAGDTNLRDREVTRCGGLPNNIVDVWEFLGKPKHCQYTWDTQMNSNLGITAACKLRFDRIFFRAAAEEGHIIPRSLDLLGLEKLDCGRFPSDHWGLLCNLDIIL
As to the kind of experiment: potency against TDP2 phosphodiesterase activity – biochemical, epi absorbance, IC50, dose response (AID 743297).

The target in assay [5] is T3, Rac GTPase-activating protein 1 (Homo sapiens, UniProt Q9H0H5).
T3 sequence (Q9H0H5 whole entry): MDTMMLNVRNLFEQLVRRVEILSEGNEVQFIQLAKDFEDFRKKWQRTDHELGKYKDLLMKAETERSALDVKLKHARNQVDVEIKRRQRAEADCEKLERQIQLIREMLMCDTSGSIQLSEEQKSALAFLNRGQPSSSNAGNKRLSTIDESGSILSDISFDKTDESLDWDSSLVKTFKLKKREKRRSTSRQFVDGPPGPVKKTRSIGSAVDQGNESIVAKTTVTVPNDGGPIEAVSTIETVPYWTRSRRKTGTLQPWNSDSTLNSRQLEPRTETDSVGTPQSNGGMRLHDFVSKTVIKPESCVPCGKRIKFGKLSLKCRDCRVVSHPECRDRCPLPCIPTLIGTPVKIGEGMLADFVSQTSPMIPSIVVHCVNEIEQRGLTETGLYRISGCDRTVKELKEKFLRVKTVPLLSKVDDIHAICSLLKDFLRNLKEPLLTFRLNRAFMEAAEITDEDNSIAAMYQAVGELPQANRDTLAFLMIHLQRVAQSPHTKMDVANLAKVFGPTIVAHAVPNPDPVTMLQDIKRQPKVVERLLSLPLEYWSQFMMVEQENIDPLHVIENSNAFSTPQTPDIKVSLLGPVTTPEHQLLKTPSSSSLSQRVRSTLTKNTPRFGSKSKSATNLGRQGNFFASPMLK
Nature of the assay: blockers of MgcRacGAP-driven Rac1 GTP hydrolysis – biochemical, ADP Hunter fluorescence, primary and confirmatory, confirmation (AID 624330). In kind it is functional.

Assay [6] in a line: NIH-3T3 fibroblast cytotoxicity, dose response, cytotoxicity control, cell-based, fluorescence, Alamar Blue, secondary assay (AID 2327).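 Further: NIH-3T3 mouse fibroblasts cultured with fluconazole at 8 µg/mL.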 The format is functional.
The target in the next assay is Paired box protein Pax-8 (Homo sapiens, UniProt Q06710). Nature of the assay: PAX8 transcriptional activity inhibition in RMG-I – RMG-I cells, luciferase, cherry-pick, dose response (AID 687027).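 Further: luciferase reporter driven by Pax8 target thyroperoxidase promoter measured by SteadyGlo luminescence.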 In kind it is functional, cell-based.
Sequence of Paired box protein Pax-8 (Q06710 whole entry): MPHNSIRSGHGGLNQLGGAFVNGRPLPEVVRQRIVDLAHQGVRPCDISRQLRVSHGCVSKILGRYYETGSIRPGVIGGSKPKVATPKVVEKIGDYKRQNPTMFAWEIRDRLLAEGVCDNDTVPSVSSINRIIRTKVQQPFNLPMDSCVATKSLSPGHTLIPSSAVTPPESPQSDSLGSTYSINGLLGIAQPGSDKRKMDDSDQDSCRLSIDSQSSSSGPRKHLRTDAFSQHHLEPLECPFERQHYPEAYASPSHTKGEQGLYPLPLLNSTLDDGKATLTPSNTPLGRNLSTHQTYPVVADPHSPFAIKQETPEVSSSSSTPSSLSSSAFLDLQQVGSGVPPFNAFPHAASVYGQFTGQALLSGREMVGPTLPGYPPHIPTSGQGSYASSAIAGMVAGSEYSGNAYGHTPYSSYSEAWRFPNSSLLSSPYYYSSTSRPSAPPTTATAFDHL
For assay [7], the system named is Streptococcus sp. 'group A'. Nature of the assay: Streptococcus pyogenes SK(-)GAS viability under kanamycin – luminescence, BacTiterGlo, confirmation, counter-screen for streptokinase expression inhibitor project, dose response (AID 1900). The format is functional, organism-based.
The subject of another assay is Streptococcus. As to the kind of experiment: GAS UMAA2166 growth inhibition – luminescence, BacTiterGlo, counter-screen for streptokinase expression inhibitor project, dose response (AID 1915).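 Further: potency for reduction of bacterial viability or growth.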 The format is functional, organism-based.
The nature of assay [8]: fluconazole-exposed Candida albicans growth modulators – fluorescence, retest, confirmation (AID 2467). The format is functional, cell-based.

Sequence of Transitional endoplasmic reticulum ATPase (Homo sapiens, UniProt P55072) (P55072 whole entry): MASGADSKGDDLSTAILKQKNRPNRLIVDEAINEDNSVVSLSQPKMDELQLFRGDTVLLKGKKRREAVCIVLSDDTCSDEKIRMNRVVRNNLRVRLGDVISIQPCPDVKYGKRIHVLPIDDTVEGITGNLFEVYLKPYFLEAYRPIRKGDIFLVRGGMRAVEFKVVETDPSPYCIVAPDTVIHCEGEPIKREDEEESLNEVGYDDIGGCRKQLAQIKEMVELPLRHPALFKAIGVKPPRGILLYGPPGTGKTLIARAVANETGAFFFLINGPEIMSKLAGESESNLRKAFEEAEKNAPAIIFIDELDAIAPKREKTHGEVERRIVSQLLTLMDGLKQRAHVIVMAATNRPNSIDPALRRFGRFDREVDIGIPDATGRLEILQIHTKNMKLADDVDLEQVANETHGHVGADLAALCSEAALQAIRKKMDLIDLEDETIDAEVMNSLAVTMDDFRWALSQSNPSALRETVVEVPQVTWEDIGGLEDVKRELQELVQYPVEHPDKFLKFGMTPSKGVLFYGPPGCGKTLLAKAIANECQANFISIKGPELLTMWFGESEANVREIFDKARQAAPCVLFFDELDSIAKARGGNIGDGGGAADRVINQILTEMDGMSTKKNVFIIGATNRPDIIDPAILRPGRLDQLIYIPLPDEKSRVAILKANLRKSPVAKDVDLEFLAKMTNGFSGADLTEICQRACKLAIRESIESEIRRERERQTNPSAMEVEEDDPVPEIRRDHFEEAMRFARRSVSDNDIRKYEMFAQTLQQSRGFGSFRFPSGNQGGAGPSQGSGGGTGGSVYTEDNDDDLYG

As to `N#Cc1c(N2CCCCC2)nc(N)c2c(N)nc(SCC(=O)O)cc12`, the IC50 in assay [1] and in [2] was > 50 µM (not active) throughout. The EC50 on Protein RecA was 9.14 µM (active).
For the compound `O=[N+]([O-])c1ccc(Sc2cccc[n+]2[O-])c2nonc12`, the AC50 in [3] is 3.91 µM (active). Besides, at Protein RecA, the EC50 was 4.93 µM (active).
As to `CC1(C)Cc2ccccc2C2=NNC(=O)C2=N1`, in [4], the IC50 was 22.9 µM (inactive). Besides, on Protein RecA, the EC50 was 1.17 µM (active).
`Oc1ccc(NC(=S)N=Nc2c(O)[nH]c3ccccc23)cc1`: in assay [5], the IC50 was 21.5 µM (active).
As for `CCCC(=O)NC(c1ccc(C(C)C)cc1)c1ccc2cccnc2c1O` (centres undefined), the EC50 in assay [6] is 22.1 µM (inconclusive); in [7], 2.55 µM (active); with Streptococcus, 6.95 µM (active); in assay [8], 0.621 µM (active). Moreover, the AC50 at Paired box protein Pax-8 was 1.21 µM (active).
On to `CCc1ccc(S(=O)(=O)Nc2cc(SCC(=O)O)c(O)c3ccccc23)cc1`, for which, in assay [4], the IC50 is 85.9 µM (inactive). In addition, the EC50 at Protein RecA is 0.217 µM (active).
As for `Oc1c(Cl)cc(Cl)c(Cl)c1Cc1c(O)c(Cl)cc(Cl)c1Cl` [HEXACHLOROPHENE], the EC50 in assay [6] is 16.2 µM (active); in [7], 0.244 µM (active); in the assay with Streptococcus, 0.262 µM (active); at Protein RecA, 7.27 µM (active); in assay [8], > 38 µM (not active). The concentration at half-maximal activity (AC50) in assay [3] was 0.77 µM (active); at Paired box protein Pax-8 it was 3.3 µM (active). Besides, the IC50 in assay [1] was 5.49 µM (active); in [2], > 50 µM (not active).
